The assay has as its system rat with complete mid-thoracic spinal cord transection. The experiment in a line: Locomotor behavior of rats one week after complete mid-thoracic spinal cord transection, drug therapy with or without epidural stimulation (FIG. 1). In kind it is in vivo. Conditions: one week post-injury; for Locomotor behavior, epidural stimulation in combination with a single drug: epidural stimulation simultaneously at L2 plus S1; for Locomotor behavior after administration of drug: no epidural stimulation. The method, then: FIG. 1 summarizes recent experiments in rats that were carried out to assess the effectiveness of epidural stimulation coupled with combined drug therapy in the treatment of complete spinal cord injuries. The combination of quipazine and 8-OHDPAT with simultaneous epidural stimulation at spinal sites L2 and S1 results in robust coordinated stepping as early as one week after a complete spinal cord transection. Locomotor behavior observed from a typical rat before the injury and one week after a complete mid-thoracic spinal cord transection. The amount of body weight support provided to the rat is shown in red. One week post-injury, no spontaneous stepping activity is observed. […] Sol, soleus; TA, tibialis anterior;MTP, metatarsal-phalangeal.
FIG. 1 summarizes experiments in rats that were carried out to assess the effectiveness of epidural stimulation coupled with combined drug therapy in acute treatment of complete spinal cord injury.

As for `c1ccc2nc(N3CCNCC3)ccc2c1` [Quipazine], the “Locomotor behavior, epidural stimulation in combination with a single drug” value is “enables plantar stepping” and the “Locomotor behavior after administration of drug” value is on record as “erratic movements”.

In the case of `CCCN(CCC)C1CCc2cccc(O)c2C1` (stereo not shown) [8-OHDPAT], the “Locomotor behavior, epidural stimulation in combination with a single drug” value is listed as “enables plantar stepping” and the “Locomotor behavior after administration of drug” value is “erratic movements”.

(Values after patent US20180353755A1, “EPIDURAL STIMULATION FOR FACILITATION OF LOCOMOTION, POSTURE, VOLUNTARY MOVEMENT, AND RECOVERY OF AUTONOMIC, SEXUAL, VASOMOTOR, AND COGNITIVE FUNCTION AFTER NEUROLOGICAL INJURY” (NeuroRecovery Technologies, Inc., priority 2014, published 2018).)
